Data: ChEMBL document CHEMBL1201862, “PubChem BioAssay data set” (2004)
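Tested at 5 concentrations; 48 h exposure; 96-well plates; endpoints linearly interpolated, else capped at highest concentration. At the GI50, growth is halved.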 Activity calls are given as the source filed them. No stated cut-off is given here; in the data, active = GI50 up to about 1.1 µM and inactive = higher.

Experiments:
Test in all cases: NCI-60 cell line screen, 48 h
[1] = tested on: OVCAR-4
[2] = tested on: MOLT-4
[3] = tested on: T47D
[4] = tested on: BT-549
[5] = tested on: NCI-H226
[6] = tested on: MDA-N
[7] = tested on: IGROV-1
[8] = tested on: SF-295
[9] = tested on: HCT-15
[10] = tested on: ACHN
[11] = tested on: MCF7
[12] = tested on: SN12C
[13] = tested on: KM12
[14] = tested on: 786-0
[15] = tested on: Hs-578T
[16] = tested on: K562
[17] = tested on: UACC-257
[18] = tested on: SK-MEL-28
[19] = tested on: HL-60

Row | Compound | GI50 [1] | GI50 [2] | GI50 [3] | GI50 [4] | GI50 [5] | GI50 [6] | GI50 [7] | GI50 [8] | GI50 [9] | GI50 [10] | GI50 [11] | GI50 [12] | GI50 [13] | GI50 [14] | GI50 [15] | GI50 [16] | GI50 [17] | GI50 [18] | GI50 [19]
1 | CCOC(=O)/C=C/[C@H](O[Si](c1ccccc1)(c1ccccc1)c1ccccc1)C(C)(C)C | > 31.6 µM (inactive) | 14.1 µM (inactive) | 11.5 µM (inactive) | > 10 µM (inactive) | > 31.6 µM (inactive) | > 31.6 µM (inactive) | > 31.6 µM (inactive) | > 31.6 µM (inactive) | > 31.6 µM | > 31.6 µM (inactive) | > 31.6 µM (inactive) | > 31.6 µM (inactive) | 15.8 µM (inactive) | > 31.6 µM (inactive) | 20.5 µM (inactive) | 7.78 µM (inactive) | 11.1 µM (inactive) | > 10 µM (inactive) | > 100 µM (inactive)
2 | CCc1ccc(/C=C/C(=O)C2CN(CC)CCC2(O)/C=C/c2ccc(CC)cc2)cc1 (centres undefined) | 4.2 µM (inactive) | 2.2 µM (inactive) | 4.15 µM (inactive) | 4.68 µM (inactive) | 4.41 µM (inactive) | 3.23 µM (inactive) | 2.06 µM (inactive) | 2.94 µM (inactive) | 3.24 µM | 1.95 µM (inactive) | 2.42 µM (inactive) | 4.09 µM (inactive) | 1.87 µM (inactive) | 1.75 µM (inactive) | 2.83 µM (inactive) | 2.52 µM (inactive) | 6.92 µM (inactive) | 1.55 µM (inactive) | 2.77 µM (inactive)
3 | CCCCNc1nc(SC)nc2[nH]cnc12 | > 100 µM (inactive) | > 100 µM (inactive) | > 100 µM (inactive) | > 100 µM (inactive) | > 100 µM (inactive) | > 100 µM (inactive) | > 100 µM (inactive) | > 100 µM (inactive) | > 100 µM | > 100 µM (inactive) | > 100 µM (inactive) | > 100 µM (inactive) | > 100 µM (inactive) | > 100 µM (inactive) | 2.36 µM (inactive) | > 100 µM (inactive) | > 100 µM (inactive) | > 100 µM (inactive) | > 100 µM (inactive)
4 | COc1ccc(OC)c(-c2nc3n(c2/C=C2/C(=O)Nc4ccccc42)CCS3)c1 | 41.5 µM (inactive) | 27 µM (inactive) | 35.1 µM (inactive) | 81.5 µM (inactive) | > 100 µM (inactive) | 18.2 µM (inactive) | 36 µM (inactive) | 29.4 µM (inactive) | 42.3 µM | 90.6 µM (inactive) | 46.7 µM (inactive) | 65.8 µM (inactive) | 30.1 µM (inactive) | > 100 µM (inactive) | 44.8 µM (inactive) | 37.4 µM (inactive) | 63.1 µM (inactive) | > 100 µM (inactive) | 33.9 µM (inactive)
5 | O=C(/C=C/c1ccccc1)CCC1C(=O)c2ccccc2C1=O | 31.3 µM (inactive) | > 100 µM (inactive) | > 100 µM (inactive) | > 100 µM (inactive) | > 100 µM (inactive) | 43.8 µM (inactive) | > 100 µM (inactive) | > 100 µM (inactive) | 42.6 µM | > 100 µM (inactive) | > 100 µM (inactive) | > 100 µM (inactive) | > 100 µM (inactive) | > 100 µM (inactive) | > 100 µM (inactive) | > 100 µM (inactive) | > 100 µM (inactive) | > 100 µM (inactive) | > 100 µM (inactive)
6 | Oc1cc(-c2ccc(F)cc2)nc2ncc(Cl)cc12 | > 77.3 µM (inactive) | 20.7 µM (inactive) | 48.4 µM (inactive) | > 100 µM (inactive) | 3.03 µM (inactive) | 2.94 µM (inactive) | 17.1 µM (inactive) | 18.1 µM (inactive) | 4.62 µM | > 73.1 µM (inactive) | 12.3 µM (inactive) | > 84.1 µM (inactive) | 6.17 µM (inactive) | 32.7 µM (inactive) | 19.9 µM (inactive) | 4.21 µM (inactive) | > 68.9 µM (inactive) | 58.5 µM (inactive) | 3.38 µM (inactive)
7 | O=C(O)c1cc(/N=N/c2ccc([As](=O)(O)O)cc2)ccc1O | > 100 µM (inactive) | > 100 µM (inactive) | > 100 µM (inactive) | > 100 µM (inactive) | > 100 µM (inactive) | > 100 µM (inactive) | > 100 µM (inactive) | > 100 µM (inactive) | > 100 µM | > 100 µM (inactive) | > 100 µM (inactive) | > 100 µM (inactive) | > 100 µM (inactive) | > 100 µM (inactive) | > 100 µM (inactive) | > 100 µM (inactive) | > 100 µM (inactive) | > 100 µM (inactive) | > 100 µM (inactive)
8 | CCOC(=O)C(Cc1ccc(N(CCCl)CCCl)cc1)NC(=O)CCCN1C(=O)CN=C(c2ccccc2)c2cc(Cl)ccc21 (centres undefined) | 18.6 µM (inactive) | 2.44 µM (inactive) | 3.55 µM (inactive) | 41.9 µM (inactive) | 35.2 µM (inactive) | 6.11 µM (inactive) | 4.37 µM (inactive) | 51.4 µM (inactive) | 20.6 µM | 7.08 µM (inactive) | 8.53 µM (inactive) | 4.43 µM (inactive) | 25.5 µM (inactive) | 10.2 µM (inactive) | 6.67 µM (inactive) | 6.32 µM (inactive) | 3.6 µM (inactive) | 3.03 µM (inactive) | 2.21 µM (inactive)
9 | CC(C)=CC[C@]12CCN[C@H]1N(S(=O)(=O)c1ccccc1)c1ccccc12 | 14.3 µM (inactive) | 21.1 µM (inactive) | 15.2 µM (inactive) | 17.1 µM (inactive) | 14.9 µM (inactive) | 15.2 µM (inactive) | 10.6 µM (inactive) | 14.8 µM (inactive) | 15.6 µM | 21.1 µM (inactive) | 18.2 µM (inactive) | 13.6 µM (inactive) | 22 µM (inactive) | 15.6 µM (inactive) | 20.5 µM (inactive) | 16.7 µM (inactive) | 17.6 µM (inactive) | 16.4 µM (inactive) | 17.8 µM (inactive)
10 | C[C@H](CCC(=O)O)[C@H]1CC[C@H]2[C@@H]3CC[C@@H]4C[C@H](O)CC[C@]4(C)[C@H]3C[C@H](O)[C@]12C [DEOXYCHOLIC ACID] | 49.7 µM (inactive) | 26.5 µM (inactive) | 31.4 µM (inactive) | 48.4 µM (inactive) | 95.1 µM (inactive) | 42.2 µM (inactive) | 27.9 µM (inactive) | 17.8 µM (inactive) | 36.1 µM | 37.8 µM (inactive) | 36.2 µM (inactive) | 34 µM (inactive) | 49.4 µM (inactive) | 45.8 µM (inactive) | 40.7 µM (inactive) | 36.6 µM (inactive) | 92.3 µM (inactive) | 63.1 µM (inactive) | 30.1 µM (inactive)
11 | N#Cc1cccc(N2C(=O)C3C4C=CC(C3C2=O)C2C(=O)N(c3cccc(C#N)c3)C(=O)C42)c1 (centres undefined) | > 63.1 µM (inactive) | 41.8 µM (inactive) | > 31.6 µM (inactive) | 17.7 µM (inactive) | 62.1 µM (inactive) | > 100 µM (inactive) | 29.7 µM (inactive) | 17.1 µM (inactive) | > 63.1 µM | 40.7 µM (inactive) | > 100 µM (inactive) | > 39.8 µM (inactive) | > 56.2 µM (inactive) | 33.1 µM (inactive) | 40 µM (inactive) | 46.9 µM (inactive) | > 63.1 µM (inactive) | > 63.1 µM (inactive) | > 80.9 µM (inactive)
